Data on 29 compounds can be found in US11945796B2, “Substituted pyridine derivatives as SARM1 inhibitors” (Nura Bio, Inc., priority 2020, dated 2024).

Read-outs that look alike come from different tables or passages of the source. Some results are limits rather than exact numbers.

The experiment has as its target T1, human SARM1(50-724) (Homo sapiens, UniProt Q6SZW1).
T1 construct: 40 nM human SARM1(50-724)
T1 sequence (Q6SZW1 50-724): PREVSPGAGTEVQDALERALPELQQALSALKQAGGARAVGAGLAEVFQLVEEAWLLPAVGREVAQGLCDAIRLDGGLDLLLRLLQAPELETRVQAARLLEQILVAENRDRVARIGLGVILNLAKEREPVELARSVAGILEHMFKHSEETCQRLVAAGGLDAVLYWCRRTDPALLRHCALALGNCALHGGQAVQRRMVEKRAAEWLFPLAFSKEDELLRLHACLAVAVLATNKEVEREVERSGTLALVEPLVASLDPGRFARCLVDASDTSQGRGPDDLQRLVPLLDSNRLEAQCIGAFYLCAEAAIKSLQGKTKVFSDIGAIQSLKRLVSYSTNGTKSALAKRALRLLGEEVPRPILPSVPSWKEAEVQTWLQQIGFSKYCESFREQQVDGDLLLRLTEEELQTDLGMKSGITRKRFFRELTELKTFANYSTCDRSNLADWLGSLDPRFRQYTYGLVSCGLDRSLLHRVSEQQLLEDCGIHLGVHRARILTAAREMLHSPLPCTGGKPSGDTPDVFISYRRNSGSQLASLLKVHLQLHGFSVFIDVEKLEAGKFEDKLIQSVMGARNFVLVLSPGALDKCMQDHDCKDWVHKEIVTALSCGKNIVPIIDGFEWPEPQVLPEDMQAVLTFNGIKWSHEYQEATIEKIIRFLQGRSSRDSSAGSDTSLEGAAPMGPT
Description: SARM1 NADase biochemical assay (HPLC peak areas of NAD and NAM). The note with it: for IC50: dose-response, 1:3 serial dilution from 100 μM, 40 nM SARM1, 0.3 mM NMN, 20 μM NAD, 60 min rt. The procedure:
The reaction was incubated at room temperature for 60 minutes and quenched with 20 μL of 0.4% formic acid. […] Total run time for each sample was 4 minutes. […] Samples were run at a flow rate of 0.8 mL/min at 55° C. Peak areas of NAD and NAM were determined using OpenLAB CDS (Chem Station edition) software. For dose-response, the compound was diluted serially 1:3 in DMSO and added to the reaction starting at a final compound concentration of 100 μM in 1% DMSO.

Setting [1] is: 50 μM compound, NAD peak area, read-out: Avg NAD % inhibition at 50 μM.
The mark [2] stands for this setting: 50 μM compound, NAM peak area, read-out: Avg NAM % inhibition at 50 μM.
[3] abbreviates: read-out: Avg NAD % inhibition at 50 μM.
The mark [4] stands for this setting: read-out: Avg NAM % inhibition at 50 μM.

`FC(F)(F)C(CNc1ccn(Cc2ccncc2)n1)C(F)(F)F` [Example 16, 1-(Pyridin-4-ylmethyl)-N-(3,3,3-trifluoro-2-(trifluoromethyl)propyl)-1H-pyrazol-3-amine] gave an IC50 of 1 to 10 µM.
Same read-out and setting: next, `N#CCNc1ccn(Cc2ccncc2)n1` [Example 17, 2-((1-(Pyridin-4-ylmethyl)-1H-pyrazol-3-yl)amino)acetonitrile]: 1 to 10 µM.
The same measure, in the same setting: to `FC(F)(F)Cn1ccc(Cc2ccncc2)n1` [Example 20, 4-((1-(2,2,2-Trifluoroethyl)-1H-pyrazol-3-yl)methyl)pyridine] belongs 1 to 10 µM; to `Cc1cnccc1Cc1ccn(CC(F)(F)F)n1` [Example 23, 3-Methyl-4-((1-(2,2,2-trifluoroethyl)-1H-pyrazol-3-yl)methyl)pyridine], 1 to 10 µM.
`FC(F)(F)CNc1ccn(Cc2ccncc2)n1` [Example 26, 1-(Pyridin-4-ylmethyl)-N-(2,2,2-trifluoroethyl)-1H-pyrazol-3-amine] gave an IC50 of 10 to 100 µM. Under setting [1], the inhibition at 50 µM is 0 to 50%. The inhibition at 50 µM under setting [2] was 0 to 50%.
Regarding `FC(F)(F)Cc1ccn(Cc2ccncc2)n1` [Example 29, 4-((3-(2,2,2-Trifluoroethyl)-1H-pyrazol-1-yl)methyl)pyridine], the half-inhibitory concentration (IC50) was below 1 µM.
The same measure, in the same setting: to `N#CCc1ccn(Cc2ccncc2)n1` [Example 30, 2-(1-(Pyridin-4-ylmethyl)-1H-pyrazol-3-yl)acetonitrile] belongs 1 to 10 µM.
`O=C(CCc1cccc(Cl)c1)Nc1ccn(Cc2ccncc2)n1` [Example 32, 3-(3-Chlorophenyl)-N-(1-(pyridin-4-ylmethyl)-1H-pyrazol-3-yl)propanamide]: the inhibition at 50 µM was in the range of 0 to 50% under setting [1] and 0 to 50% under setting [2].
`O=C(CCc1cc(F)ccc1F)Nc1ccn(Cc2ccncc2)n1` [Example 33, 3-(2,5-Difluorophenyl)-N-(1-(pyridin-4-ylmethyl)-1H-pyrazol-3-yl)propanamide] yielded an IC50 above 100 µM. Further, the inhibition at 50 µM under setting [1] was in the range of 51 to 100%. Under setting [2], the inhibition at 50 µM lay within 51 to 100%.
Regarding `O=C(CCc1ccccc1)Nc1ccn(Cc2ccncc2)n1` [Example 34, 3-Phenyl-N-(1-(pyridin-4-ylmethyl)-1H-pyrazol-3-yl)propanamide], the inhibition at 50 µM by setting is: under setting [1], 0 to 50%; under setting [2], 0 to 50%.
Consider `O=C(CCc1cc(Cl)cc(Cl)c1)Nc1ccn(Cc2ccncc2)n1` [Example 35, 3-(3,5-Dichlorophenyl)-N-(1-(pyridin-4-ylmethyl)-1H-pyrazol-3-yl)propanamide], for which the inhibition at 50 µM under setting [1] lay within 0 to 50% and the inhibition at 50 µM under setting [2] lay within 0 to 50%.
As for `O=C(Cc1ccccc1)Nc1ccn(Cc2ccncc2)n1` [Example 36, 2-Phenyl-N-(1-(pyridin-4-ylmethyl)-1H-pyrazol-3-yl)acetamide], the inhibition at 50 µM under setting [3] is 0 to 50% and the inhibition at 50 µM under setting [4] lay within 0 to 50%.
`O=C(Nc1ccn(Cc2ccncc2)n1)c1ccc2c(c1)OCCO2` [Example 37, N-(1-(Pyridin-4-ylmethyl)-1H-pyrazol-3-yl)-2,3-dihydrobenzo[b][1,4]dioxine-6-carboxamide]: the inhibition at 50 µM under setting [1] was in the range of 0 to 50% and the inhibition at 50 µM under setting [2] is 0 to 50%.
`O=C(Nc1ccn(Cc2ccncc2)n1)c1ccc2c(c1)OCC2` [Example 38, N-(1-(Pyridin-4-ylmethyl)-1H-pyrazol-3-yl)-2,3-dihydrobenzofuran-6-carboxamide] gave a 50% inhibitory concentration (IC50) of 1 to 10 µM.
Consider `O=C(Nc1ccn(Cc2ccncc2)n1)c1ccc2c(c1)CCO2` [Example 39, N-(1-(Pyridin-4-ylmethyl)-1H-pyrazol-3-yl)-2,3-dihydrobenzofuran-5-carboxamide], for which the inhibition at 50 µM is, setting by setting: under setting [1], 0 to 50%; under setting [2], 0 to 50%.
As to `O=C(Nc1ccn(Cc2ccncc2)n1)c1ccc2c(c1)CCC2` [Example 40, N-(1-(Pyridin-4-ylmethyl)-1H-pyrazol-3-yl)-2,3-dihydro-1H-indene-5-carboxamide], the inhibition at 50 µM under setting [1] lay within 0 to 50% and the inhibition at 50 µM under setting [2] was in the range of 0 to 50%.
Turning to `COc1ccc(C(=O)Nc2ccn(Cc3ccncc3)n2)cc1OC` [Example 41, 3,4-Dimethoxy-N-(1-(pyridin-4-ylmethyl)-1H-pyrazol-3-yl)benzamide], the inhibition at 50 µM is, setting by setting: under setting [3], 0 to 50%; under setting [4], 0 to 50%.
On to `COc1ccc(C(=O)Nc2ccn(Cc3ccncc3)n2)cc1` [Example 42, 4-Methoxy-N-(1-(pyridin-4-ylmethyl)-1H-pyrazol-3-yl)benzamide], for which the inhibition at 50 µM under setting [1] lay within 0 to 50% and the inhibition at 50 µM under setting [2] was 0 to 50%.
As to `COc1cccc(C(=O)Nc2ccn(Cc3ccncc3)n2)c1` [Example 43, 3-Methoxy-N-(1-(pyridin-4-ylmethyl)-1H-pyrazol-3-yl)benzamide], the inhibition at 50 µM under setting [1] lay within 0 to 50% and the inhibition at 50 µM under setting [2] fell in the range of 0 to 50%.
With `COc1ccccc1C(=O)Nc1ccn(Cc2ccncc2)n1` [Example 44, 2-Methoxy-N-(1-(pyridin-4-ylmethyl)-1H-pyrazol-3-yl)benzamide], the inhibition at 50 µM by setting is: under setting [3], 0 to 50%; under setting [4], 0 to 50%.
Consider `O=C(Nc1ccn(Cc2ccncc2)n1)c1ccc(O)cc1` [Example 45, 4-Hydroxy-N-(1-(pyridin-4-ylmethyl)-1H-pyrazol-3-yl)benzamide], for which the inhibition at 50 µM is 0 to 50% under setting [1] and 0 to 50% under setting [2].
`O=C(Nc1ccn(Cc2ccncc2)n1)c1cccc(O)c1` [Example 46, 3-Hydroxy-N-(1-(pyridin-4-ylmethyl)-1H-pyrazol-3-yl)benzamide]: the inhibition at 50 µM reads like this: under setting [1], 0 to 50%; under setting [2], 0 to 50%.
For the compound `O=C(Nc1ccn(Cc2ccncc2)n1)c1ccccc1O` [Example 47, 2-Hydroxy-N-(1-(pyridin-4-ylmethyl)-1H-pyrazol-3-yl)benzamide], the inhibition at 50 µM under setting [1] is 0 to 50% and the inhibition at 50 µM under setting [2] lay in the range of 0 to 50%.
For `Cc1ccccc1C(=O)Nc1ccn(Cc2ccncc2)n1` [Example 48, 2-Methyl-N-(1-(pyridin-4-ylmethyl)-1H-pyrazol-3-yl)benzamide], the inhibition at 50 µM is 0 to 50% under setting [1] and 0 to 50% under setting [2].
Turning to `Cc1cccc(C(=O)Nc2ccn(Cc3ccncc3)n2)c1` [Example 49, 3-Methyl-N-(1-(pyridin-4-ylmethyl)-1H-pyrazol-3-yl)benzamide], the inhibition at 50 µM under setting [1] is 0 to 50% and the inhibition at 50 µM under setting [2] was in the range of 0 to 50%.
`Cc1ccc(C(=O)Nc2ccn(Cc3ccncc3)n2)cc1` [Example 50, 4-Methyl-N-(1-(pyridin-4-ylmethyl)-1H-pyrazol-3-yl)benzamide]: the inhibition at 50 µM reads like this: under setting [1], 0 to 50%; under setting [2], 0 to 50%.
For the compound `N#Cc1ccccc1C(=O)Nc1ccn(Cc2ccncc2)n1` [Example 51, 2-Cyano-N-(1-(pyridin-4-ylmethyl)-1H-pyrazol-3-yl)benzamide], the inhibition at 50 µM is 0 to 50% under setting [3] and 0 to 50% under setting [4].
For the compound `N#Cc1ccc(C(=O)Nc2ccn(Cc3ccncc3)n2)cc1` [Example 52, 4-Cyano-N-(1-(pyridin-4-ylmethyl)-1H-pyrazol-3-yl)benzamide], the inhibition at 50 µM lay in the range of 0 to 50% under setting [1] and 0 to 50% under setting [2].
As to `O=C(Nc1ccn(Cc2ccncc2)n1)c1ccccc1Cl` [Example 53, 2-Chloro-N-(1-(pyridin-4-ylmethyl)-1H-pyrazol-3-yl)benzamide], the inhibition at 50 µM reads like this: under setting [1], 0 to 50%; under setting [2], 0 to 50%.

For orientation: IC50 means the point on the concentration scale where inhibition reaches its midpoint. By inhibition is commonly meant the share of the control response that was lost under treatment.
